# Measured values from patent US4401604A, “Process for preparing thiosulfenamide derivatives of N-phosphonomethylglycine triesters” (Monsanto Company, priority 1981, dated 1983).
# Assays:
# Format in all cases: in vivo
# [1] = test system: Cocklebur; assay: Pre-emergent herbicidal activity; conditions: Table III; 11.2 kg/h; 2 WAT
# Text: (§1) A good grade of top soil is placed in aluminum pans and compacted to a depth of 0.95 to 1.27 cm. from the top of each pan. A predetermined number of seeds or vegetative propagules of each of several plant species are placed on top of the soil in each pan and then pressed down. Herbicidal compositions prepared as in the previous example are applied by admixture with or incorporation in the top layer of soil.
# (§2) In this method, the soil required to cover the seeds and propagules is weighed and admixed with a herbicidal composition containing a known amount of the active ingredient (compound of this invention). The pans are then filled with the admixture and leveled. Watering is carried out by permitting the soil in the pans to absorb moisture through apertures in the pan bottoms. The seed and propagule containing pans are placed on a wet sand bench and maintained for approximately two weeks under ordinary conditions of sunlight and watering. At the end of this period, the number of emerged plants of each species is noted and compared to an untreated control.
# (§3) The pre-emergent herbicidal activity index used below is based upon average percent control of each species as follows:
# (§4) Plant species in the table are identified by the same code letters used in the previous example.
# [2] = test system: Quackgrass; assay: Pre-emergent herbicidal activity; conditions: Table III; 11.2 kg/h; 2 WAT
# Text: as §1, §2, §3, §4
# [3] = test system: Johnsongrass; assay: Pre-emergent herbicidal activity; conditions: Table III; 11.2 kg/h; 2 WAT
# Text: as §1, §2, §3, §4
# [4] = test system: Yellow Nutsedge; assay: Pre-emergent herbicidal activity; conditions: Table III; 11.2 kg/h; 2 WAT
# Text: as §1, §2, §3, §4
# [5] = test system: Lambsquarters; assay: Pre-emergent herbicidal activity; conditions: Table III; 11.2 kg/h; 2 WAT
# Text: as §1, §2, §3, §4
# [6] = test system: Downy Brome; assay: Pre-emergent herbicidal activity; conditions: Table III; 11.2 kg/h; 2 WAT
# Text: as §1, §2, §3, §4
# [7] = test system: Morningglory; assay: Pre-emergent herbicidal activity; conditions: Table III; 11.2 kg/h; 2 WAT
# Text: as §1, §2, §3, §4
# [8] = test system: Smartweed; assay: Pre-emergent herbicidal activity; conditions: Table III; 11.2 kg/h; 2 WAT
# Text: as §1, §2, §3, §4
# [9] = test system: Barnyardgrass; assay: Pre-emergent herbicidal activity; conditions: Table III; 11.2 kg/h; 2 WAT
# Text: as §1, §2, §3, §4
# [10] = test system: Velvetleaf; assay: Pre-emergent herbicidal activity; conditions: Table III; 11.2 kg/h; 2 WAT
# Text: as §1, §2, §3, §4
# [11] = test system: Canada Thistle; assay: Pre-emergent herbicidal activity; conditions: Table III; 11.2 kg/h; 2 WAT
# Text: as §1, §2, §3, §4
# [12] = test system: Cocklebur; assay: Post-emergence herbicidal activity, greenhouse; conditions: Table I, 4 WAT
# Text: (§5) A good grade of top soil is placed in aluminum pans having holes in the bottom and compacted to a depth of 0.95 to 1.27 cm. from the top of the pan. A predetermined number of seeds of each of several dicotyledonous and monocotyledonous annual plant species and/or vegetative propagules for the perennial plant species are placed on the soil and pressed into the soil surface. The seeds and/or vegetative propagules are covered with soil and leveled. The pans are then placed on a sand bench in the greenhouse and watered from below as needed. After the plants reach the desired age (two to three weeks), each pan except for the control pans is removed individually to a spraying chamber and sprayed by means of an atomizer operating at a positive air pressure of approximately 1.46 kg/cm^2 absolute. The atomizer contains 6 ml. of a solution or suspension of the chemical. In that 6 ml., is an amount of a cyclohexanone emulsifying agent mixture to give a spray solution or suspension which contains about 0.4% by weight of the emulsifier. The spray solution or suspension contains a sufficient amount of the candidate chemical in order to give application rates corresponding to those set forth in the tables. The spray solution is prepared by taking an aliquot of a 1.0% by weight stock solution or suspension of the candidate chemical in an organic solvent such as acetone or tetrahydrofuran or in water. The emulsifying agent employed is a mixture comprising 35 weight percent butylamine dodecylbenzene sulfonate and 65 weight percent of a tall oil ethylene oxide condensate having about 11 moles of ethylene oxide per mole of tall oil. The pans are returned to the greenhouse and watered as before and the injury to the plants as compared to the control is observed at approximately two and four weeks as indicated in the tables under WAT and the results recorded. In some instances, the two-week observations are omitted.
# (§6) The post-emergence herbicidal activity index used in Table I is as follows:
# (§7) The plant species utilized in these tests are identified by letter in accordance with the following legend: […]
# [13] = test system: Quackgrass; assay: Post-emergence herbicidal activity, greenhouse; conditions: Table I, 4 WAT
# Text: as §5, §6, §7
# [14] = test system: Johnsongrass; assay: Post-emergence herbicidal activity, greenhouse; conditions: Table I, 4 WAT
# Text: as §5, §6, §7
# [15] = test system: Yellow Nutsedge; assay: Post-emergence herbicidal activity, greenhouse; conditions: Table I, 4 WAT
# Text: as §5, §6, §7
# [16] = test system: Lambsquarters; assay: Post-emergence herbicidal activity, greenhouse; conditions: Table I, 4 WAT
# Text: as §5, §6, §7
# [17] = test system: Downy Brome; assay: Post-emergence herbicidal activity, greenhouse; conditions: Table I, 4 WAT
# Text: as §5, §6, §7
# [18] = test system: Morningglory; assay: Post-emergence herbicidal activity, greenhouse; conditions: Table I, 4 WAT
# Text: as §5, §6, §7
# [19] = test system: Smartweed; assay: Post-emergence herbicidal activity, greenhouse; conditions: Table I, 4 WAT
# Text: as §5, §6, §7
# [20] = test system: Barnyardgrass; assay: Post-emergence herbicidal activity, greenhouse; conditions: Table I, 4 WAT
# Text: as §5, §6, §7
# [21] = test system: Velvetleaf; assay: Post-emergence herbicidal activity, greenhouse; conditions: Table I, 4 WAT
# Text: as §5, §6, §7
# [22] = test system: Canada Thistle; assay: Post-emergence herbicidal activity, greenhouse; conditions: Table I, 4 WAT
# Text: as §5, §6, §7
compound,measurement,setting,value
"O=C(CN(CP(=O)(Oc1ccccc1)Oc1ccccc1)SSC1CCCCC1)OCc1ccccc1 [III, Glycine, N-(cyclohexyldithio)-N-[(diphenoxyphosphinyl)methyl]-, phenylmethyl ester]",pre-emergent herbicidal activity index,[1],0 (0-24% control)
same,pre-emergent herbicidal activity index,[2],0 (0-24% control)
same,pre-emergent herbicidal activity index,[3],0 (0-24% control)
same,pre-emergent herbicidal activity index,[4],0 (0-24% control)
same,pre-emergent herbicidal activity index,[5],0 (0-24% control)
same,pre-emergent herbicidal activity index,[6],0 (0-24% control)
same,pre-emergent herbicidal activity index,[7],0 (0-24% control)
same,pre-emergent herbicidal activity index,[8],0 (0-24% control)
same,pre-emergent herbicidal activity index,[9],0 (0-24% control)
same,pre-emergent herbicidal activity index,[10],0 (0-24% control)
same,pre-emergent herbicidal activity index,[11],1 (25-49% control)
same,post-emergence herbicidal activity index,[12]; 5.6 kg/h,1 (25-49% control)
same,post-emergence herbicidal activity index,[12]; 11.2 kg/h,2 (50-74% control)
same,post-emergence herbicidal activity index,[13]; 5.6 kg/h,1 (25-49% control)
same,post-emergence herbicidal activity index,[13]; 11.2 kg/h,2 (50-74% control)
same,post-emergence herbicidal activity index,[14]; 5.6 kg/h,1 (25-49% control)
same,post-emergence herbicidal activity index,[14]; 11.2 kg/h,1 (25-49% control)
same,post-emergence herbicidal activity index,[15]; 5.6 kg/h,0 (0- 24% control)
same,post-emergence herbicidal activity index,[15]; 11.2 kg/h,0 (0- 24% control)
same,post-emergence herbicidal activity index,[16]; 5.6 kg/h,2 (50-74% control)
same,post-emergence herbicidal activity index,[16]; 11.2 kg/h,2 (50-74% control)
same,post-emergence herbicidal activity index,[17]; 5.6 kg/h,1 (25-49% control)
same,post-emergence herbicidal activity index,[17]; 11.2 kg/h,1 (25-49% control)
same,post-emergence herbicidal activity index,[18]; 5.6 kg/h,1 (25-49% control)
same,post-emergence herbicidal activity index,[18]; 11.2 kg/h,2 (50-74% control)
same,post-emergence herbicidal activity index,[19]; 5.6 kg/h,2 (50-74% control)
same,post-emergence herbicidal activity index,[19]; 11.2 kg/h,1 (25-49% control)
same,post-emergence herbicidal activity index,[20]; 5.6 kg/h,2 (50-74% control)
same,post-emergence herbicidal activity index,[20]; 11.2 kg/h,2 (50-74% control)
same,post-emergence herbicidal activity index,[21]; 5.6 kg/h,0 (0- 24% control)
same,post-emergence herbicidal activity index,[21]; 11.2 kg/h,1 (25-49% control)
same,post-emergence herbicidal activity index,[22]; 5.6 kg/h,1 (25-49% control)
same,post-emergence herbicidal activity index,[22]; 11.2 kg/h,0 (0- 24% control)
